Results as given in US20060142391A1, “PPARGAMMA-ACTIVATING PHARMACEUTICAL COMPOSITION” (priority 2001, published 2006).

Tests used:
[1] = system: neutrophils and vascular endothelial cells; assay: In vitro model simulating vascular inflammation induced by TNFα (transwell); assay type: cell-based, bovine; conditions: 30, 3 or 0.3 μM together with TNFα
Protocol: An in vitro model simulating vascular inflammation was prepared according to the method described in “Textbook on Biopharmaceutical Experiments, 12 Inflammation and Allergy II”, pp. 327-341 (edited by Kazuo Ouchi, published by Hirokawa Publishing Co., May 15, 1993).
Transwells (from Kurabo Industries, Ltd.) divided into upper and lower chambers by a porous polycarbonate membrane having a pore size of 3 μm were used and a layer of bovine endothelial cells were coated on the bottom of the membrane and incubated at 37° C. under 5% CO2 for 80 minutes. […]
To the upper chamber of the transwells was added a suspension of neutrophils containing 4(S)-OH-DHA at a final concentration of 30, 3 or 0.3 μM together with TNFα to count the number of neutrophils permeating the vascular endothelial cell layer from the upper chamber into the lower chamber and the number of neutrophils adhering to the endothelial cell layer in the same manner as described above, and thereafter the migration and adhesion (%) of neutrophils were calculated.
The migration and adhesion percentages of neutrophils were expressed as relative values of the numbers of neutrophils that migrated or adhered in the group treated with the drug as compared with neutrophils in a negative control group.

[2] = system: GAL4 (yeast transcription activator)—PPARγ fusion protein; assay: PPARγ agonist activity assay (GAL4-PPARγ / CAT reporter in COS-1 cells); assay type: cell-based; conditions: for PPARγ agonist activity compared with 15-deoxy-PG J2 positive control: 1 μM; for PPARγ agonist activity relative to the negative control group with no drug added: concentration of 1 μM
Protocol: COS-1 cells were cotransfected with a plasmid for expressing a GAL4 (yeast transcription activator)—PPARγ fusion protein (effector plasmid) and a reporter plasmid 17 M2 CAT (GAL4 responsive sequence+TK promoter+chloramphenicol acetyltransferase cDNA), and then test compounds were added to the culture medium and CAT activity was assayed after 24 hours and compared with a negative control (with no drug added) to calculate a relative CAT activity, whereby PPARγ agonist activity was evaluated ('90 Proc. Natl. Acad. Sci. USA 87, p. 9995; '94 J. B. C. 269, p. 32700; '95 ibid. p. 5858; '00 J.B.C. 275, p. 33201). […] Then, 4(S)-OH-DHA, 8(S)-OH-DHA, 10(S)-OH-DHA, 11(S)-OH-DHA, 14(S)-OH-DHA and 17(S)-OH-DHA prepared in Example 1 were used as test compounds to assay PPARγ agonist activity as compared with 15-deoxy-PG J2 (from Bio Mol) known as a ligand for PPARγ as a positive control.

[3] = system: platelets; assay: Ex vivo collagen-induced platelet aggregation assay; assay type: in vivo, rats; conditions: 3-6 μg/ml collagen
Protocol: An evaluation was made to determine whether or not collagen-induced platelet aggregation is inhibited by 4(S)-OH-DHA.
Male SD rats (SPF, 9 weeks of age) were anesthetized and then blood was collected from the abdominal aorta into a tube containing 3.8% sodium citrate (Chitoral from Yamanouchi Pharmaceutical Co., Ltd.). The tube was centrifuged at 900 rpm at room temperature for 10 minutes to collect the supernatant (PRP, platelet-rich fraction), and the residue was further centrifuged at 2500 rpm for 15 minutes to collect the supernatant (PPP, platelet-poor fraction).
A cuvette containing PPP (platelet-poor fraction) was placed in an incubator for PPP at 37° C. in an aggregometer (Hematracer 240 12 ch, from MCM). Then, a cuvette containing 200 μl of PRP (platelet-rich fraction) was placed in a reactor for PRP. The cuvettes were stirred with a magnetic stirrer for 30 seconds to automatically correct the permeability of PPP to T650 nm=100% and the permeability of PRP to T650 nm=0%.
After 1 minute, 20 μl of collagen (from MCM) was added and subsequent changes in permeability were recorded for 5 minutes. The permeability increases with platelet aggregation. The permeability T at maximum aggregation, i.e. at the peak of aggregation was compared with the permeability T0 of a negative control to determine the degree of aggregation inhibition expressed in percentage using the following equation. Aggregation inhibition=(1−T/T0)×100
The aggregation induced by 3-6 μg/ml of collagen was evaluated in platelets prepared from blood collected at 2 instants, i.e. 10 minutes and 60 minutes after administration of 10 mg/kg of 4(S)-OH-DHA to the tail vain of male SD rats (SPF, 9 weeks of age). The aggregation was determined in animals treated with vehicle (physiological saline) as a control group.
As a control, a solvent (physiological saline) was used. Aggregation was induced by 3-6 μg/ml of collagen in platelets prepared from blood collected 10 minutes after administration of 10, 1 or 0.1 mg/kg of the test compound to the tail vain of rats.

[4] = system: hereditary diabetes db/db mice; assay: Evaluation on hereditary diabetes mice (blood sugar); assay type: in vivo; conditions: oral 100 mg/kg for a week, n=6
Protocol: As a result of oral administration of 100 mg/kg of 8(S)-OH-DHA and 14(S)-OH-DHA to hereditary diabetes db/db mice (average body weight: 42 g, n=6, available from Sankyo Co., Ltd.) for a week, a significant decrease in blood sugar levels could be observed as compared with a negative control group (treated with 5% gum acacia as a vehicle) (Table 1).

[5] = system: rat aortic smooth muscle; conditions: contraction induced by thromboxane A2 analog U 46619 (2.5 μM); cited from earlier work

| Structure (SMILES) | PPARγ agonist activity compared with 15-deoxy-PG J2 positive control [2] | PPARγ agonist activity relative to the negative control group with no drug added ([2]; CAT activity after 24 hours) | also measured |
| --- | --- | --- | --- |
| CC/C=C\C/C=C\C/C=C\C/C=C\C/C=C\C=C\[C@@H](O)CCC(=O)O [4(S)-OH-DHA] | comparable to or higher than that of 15-deoxy-PG J2 | about 3 times | Adhesion of neutrophils to the endothelial cell layer [1]: inhibited; Permeation (migration) of neutrophils through the endothelial cell layer [1]: inhibited; Platelet aggregation vs vehicle group ([3]; 1 mg/kg to tail vein, blood collected 10 minutes after administration): platelet aggregation was inhibited; Platelet aggregation vs vehicle group ([3]; 10 mg/kg to tail vein, blood collected 10 minutes after administration): platelet aggregation was inhibited; Platelet aggregation vs vehicle group ([3]; 10 mg/kg to tail vein, blood collected 60 minutes after administration): platelet aggregation was inhibited |
| CC/C=C\C/C=C\C/C=C\C/C=C\C[C@H](O)/C=C/C=C\CCC(=O)O [8(S)-OH-DHA] | comparable to or higher than that of 15-deoxy-PG J2 | about 7 times | Blood sugar level [4]: 190 ± 20 mg/dL |
| CC/C=C\C/C=C\C/C=C\C=C\[C@@H](O)C/C=C\C/C=C\CCC(=O)O [10(S)-OH-DHA] | comparable to or higher than that of 15-deoxy-PG J2 | about 3 times | – |
| CC/C=C\C/C=C\C/C=C\C[C@H](O)/C=C/C=C\C/C=C\CCC(=O)O [11(S)-OH-DHA] | comparable to or higher than that of 15-deoxy-PG J2 | about 3 times | – |
| CC/C=C\C/C=C\C[C@H](O)/C=C/C=C\C/C=C\C/C=C\CCC(=O)O [14(S)-OH-DHA] | comparable to or higher than that of 15-deoxy-PG J2 | about 7 times | Blood sugar level [4]: 220 ± 13 mg/dL |
| CC/C=C\C/C=C\CC(O)/C=C/C=C\C/C=C\C/C=C\CCC(=O)O (stereo not drawn) [14OH-DHA] | – | – | 25% inhibition concentration IC25 [5]: 1.07 ± 0.34 µM |
| CC/C=C\C[C@H](O)/C=C/C=C\C/C=C\C/C=C\C/C=C\CCC(=O)O [17(S)-OH-DHA] | comparable to or higher than that of 15-deoxy-PG J2 | about 3 times | – |
| CC/C=C\C/C=C\C/C=C\C/C=C\C/C=C\C/C=C\CCC(=O)O [DHA, docosahexaenoic acid, reference compound] | – | – | PPARγ transcription activity, ratio as compared with the negative control ([2]; test compound at 3 μM, CAT activity after 24 hours): 205±79% |
